In ChEMBL document CHEMBL1158035, “Actinomycins with altered threonine units in the beta-peptidolactone” (2006) one finds zone of inhibition, GI50 and TGI data, which are given here for 7 compounds.

The test system of one test is Escherichia coli. The experiment in a line: Antimicrobial activity against Escherichia coli at 50 ug after 24 hrs by disk diffusion method. In kind it is functional. The note with it: read-out: IZ. (In general: Agar diffusion results depend on both activity and mobility in agar.)
The next test relates to Staphylococcus aureus. The experiment in a line: Antimicrobial activity against Staphylococcus aureus at 50 ug after 24 hrs by disk diffusion method. It counts as functional. The note with it: read-out: IZ.
Another test concerns Bacillus subtilis. The experiment in a line: Antimicrobial activity against Bacillus subtilis at 50 ug after 24 hrs by disk diffusion method. It counts as functional. The note with it: read-out: IZ.
The nature of test [1]: Cytotoxicity against human HM02 cells. In kind it is functional.
The nature of test [2]: (§1) Cytotoxicity against human Hep G2 cells. In kind it is functional, HepG2.
Test [3] in a line: as §1. It counts as functional. The note with it: HepG2.

Values joined by “and” are separate entries in the source; they are usually repeats but may differ in a detail not shown here. Equal entries are not always repeated. Numbered stars: 1 amine (or outer) side, 2 acyl side, 3 side chain; on linkers, the order of the positions; unused ones are H or OH. Bridge positions count the residues as written; N and C are the ends. Square brackets hold non-standard residues; d marks the D form. Peptide text beside a SMILES is read from it. I, II: the chains in the order shown. Actinocin(1to9) = Cc1c2oc3c(C)ccc(C(=O)[*:2])c3nc-2c(C(=O)[*:1])c(N)c1=O; NMeV = CN[C@H](C(=O)O)C(C)C; Sar = CNCC(=O)O A value given as a limit tells only on which side of the number the result lay.

Turning to `Cc1c2oc3c(C)ccc(C(=O)N[C@@H]4C(=O)N[C@H](C(C)C)C(=O)N5[C@H](C(=O)N(C)CC(=O)N(C)[C@@H](C(C)C)C(=O)O[C@@H]4C)[C@@H](O)C[C@@H]5C)c3nc-2c(C(=O)N[C@@H]2C(=O)N[C@H](C(C)C)C(=O)N3CCC[C@H]3C(=O)N(C)CC(=O)N(C)[C@@H](C)C(=O)O[C@@H]2CO)c(N)c1=O` [ACTINOMYCIN G3], the figures for the zone of inhibition at 50 µg/disc in the test with Escherichia coli, with Staphylococcus aureus and in the test with Bacillus subtilis were 0 mm, 21 mm and 33 mm, respectively. Also, the GI50 (in general, the concentration giving 50% growth inhibition) in test [1] (Homo sapiens, HM02) is 130 nM; in test [2] (Homo sapiens, HepG2) it was 1100 nM; in test [3] it was 460 nM. Moreover, the TGI (commonly the concentration at which net growth stops) was 550 nM in test [1] (Homo sapiens, HM02); greater than 7900 nM in test [2] (Homo sapiens, HepG2); 1600 nM in test [3].

On to `Nc1cc2nc3ccccc3oc-2cc1=O`, for which the GI50 in test [1] (Homo sapiens, HM02) came out at 4450 nM; in test [2] (Homo sapiens, HepG2), 6600 nM; in test [3] it was 610 nM. Besides, the TGI was determined as 10000 nM in test [1] (Homo sapiens, HM02); 26000 nM in test [2] (Homo sapiens, HepG2); 2000 nM in test [3].

On to `Cc1c2oc3c(C)ccc(C(=O)N[C@@H]4C(=O)N[C@H](C(C)C)C(=O)N5[C@H](C(=O)N(C)CC(=O)N(C)[C@@H](C(C)C)C(=O)O[C@@H]4C)[C@@H](O)C[C@@H]5C)c3nc-2c(C(=O)OC[C@H](O)[C@@H]2NC(=O)[C@H](C)N(C)C(=O)CN(C)C(=O)[C@@H]3CCCN3C(=O)[C@@H](C(C)C)NC2=O)c(N)c1=O` [ACTINOMYCIN G6], for which the zone of inhibition at 50 µg/disc in the test on Escherichia coli, in the test with Staphylococcus aureus and in the test on Bacillus subtilis was 0 mm in each case. Also, the total growth inhibition concentration (TGI) is 2000 nM in test [1]; 1000 nM in test [1] (Homo sapiens, HM02); 1600 nM and > 7900 nM in test [2]; 4600 nM in test [3]. In test [3], this compound displayed a GI50 of 1400 nM.

Turning to `Cc1c2oc3c(C)ccc(C(=O)N[C@@H]4C(=O)N[C@H](C(C)C)C(=O)N5[C@H](C(=O)N(C)CC(=O)N(C)[C@@H](C(C)C)C(=O)O[C@@H]4C)[C@@H](O)C[C@@H]5C)c3nc-2c2c(c1=O)OC[C@H]1OC(=O)[C@H](C)N(C)C(=O)CN(C)C(=O)[C@@H]3CCCN3C(=O)[C@@H](C(C)C)NC(=O)[C@H]1NC2=O` [ACTINOMYCIN G5], the zone of inhibition at 50 µg/disc in the test on Escherichia coli amounted to 0 mm; in the test with Staphylococcus aureus it was 10 mm; in the test on Bacillus subtilis it was 20 mm. Further, the GI50 was determined as 2100 nM in test [1] (Homo sapiens, HM02); 2700 nM in test [2] (Homo sapiens, HepG2); 1400 nM in test [3]. Besides, the total growth inhibition concentration (TGI) turned out to be 4400 nM in test [1] (Homo sapiens, HM02); 7800 nM in test [2] (Homo sapiens, HepG2); 2500 nM in test [3].

On to `Cc1c2oc3c(C)ccc(C(=O)N[C@@H]4C(=O)N[C@H](C(C)C)C(=O)N5[C@H](C(=O)N(C)CC(=O)N(C)[C@@H](C(C)C)C(=O)O[C@@H]4C)[C@@H](O)C[C@@H]5C)c3nc-2c(C(=O)N[C@@H]2C(=O)N[C@H](C(C)C)C(=O)N3CCC[C@H]3C(=O)N(C)CC(=O)N(C)[C@@H](C)C(=O)O[C@@H]2C)c(N)c1=O` [ACTINOMYCIN G4], for which the 50% growth inhibitory concentration (GI50) was 65 nM in test [1] (Homo sapiens, HM02); 640 nM in test [2] (Homo sapiens, HepG2); 400 nM in test [3]. Besides, the TGI in test [1] (Homo sapiens, HM02) was found to be 520 nM; in test [2] (Homo sapiens, HepG2) it was 1400 nM; in test [3], 1500 nM.

In the case of `Cc1c2oc3c(C)ccc(C(=O)N[C@@H]4C(=O)N[C@H](C(C)C)C(=O)N5[C@H](C(=O)N(C)CC(=O)N(C)[C@@H](C(C)C)C(=O)O[C@@H]4C)[C@@H](O)C[C@@H]5C)c3nc-2c(C(=O)N[C@@H]2C(=O)N[C@H](C(C)C)C(=O)N3CCC[C@H]3C(=O)N(C)CC(=O)N(C)[C@@H](C)C(=O)O[C@@H]2CCl)c(N)c1=O` [ACTINOMYCIN G2], the results for the zone of inhibition at 50 µg/disc in the test with Escherichia coli, in the test on Staphylococcus aureus and in the test with Bacillus subtilis were 15 mm, 27 mm and 45 mm, respectively. Also, the GI50 was found to be 1.3 nM in test [1] (Homo sapiens, HM02); 2.9 nM in test [2] (Homo sapiens, HepG2); 3.9 nM in test [3]. Also, the concentration for total growth inhibition (TGI) turned out to be 4.3 nM in test [1] (Homo sapiens, HM02); 18 nM in test [2] (Homo sapiens, HepG2); 12 nM in test [3].

Take `Cc1c2oc3c(C)ccc(C(=O)N[C@@H]4C(=O)N[C@H](C(C)C)C(=O)N5CCC[C@H]5C(=O)N(C)CC(=O)N(C)[C@@H](C(C)C)C(=O)O[C@@H]4C)c3nc-2c(C(=O)N[C@@H]2C(=O)N[C@H](C(C)C)C(=O)N3CCC[C@H]3C(=O)N(C)CC(=O)N(C)[C@@H](C(C)C)C(=O)O[C@@H]2C)c(N)c1=O` [DACTINOMYCIN] (I: T[dV]P[Sar][NMeV] / II: T[dV]P[Sar][NMeV]; ester I:1-I:C, II:1-II:C; linker I:N-II:N via Actinocin(1to9)): the zone of inhibition at 50 µg/disc in the test with Escherichia coli is 20 mm; with Staphylococcus aureus, 30 mm; with Bacillus subtilis, 55 mm. In addition, the 50% growth inhibitory concentration (GI50) was found to be 1.6 nM in test [1] (Homo sapiens, HM02); 1.2 nM in test [2] (Homo sapiens, HepG2); 1.9 nM in test [3]. The total growth inhibition concentration (TGI) in test [1] (Homo sapiens, HM02) was 6.4 nM; in test [2] (Homo sapiens, HepG2), 52 nM; in test [3], 8.8 nM.
